US6346514B1, “Pharmaceutical lysine-containing polypeptide compositions and methods of use thereof” (priority 1991, dated 2002)

System: Vibrio anguillarum (V-775)
Experiment: Vaccine augmentation in Rainbow trout challenged with Vibrio anguillarum
Format: in vivo, Rainbow trout (Oncorhynchus mykiss)
Experimental: In the present investigation, fish were obtained and inoculated at approximately 12 weeks of age. Immunologic studies were conducted under a variety of conditions in which fish were provided with vaccination to observe vaccine augmentation, and under conditions in which no vaccine was provided prior to inoculum. The effects of exposure time, HM897 concentration, and vaccine on mortalities relative to control studies in which no HM897 was administered provided data for analysis of the immunologic effect of HM897.
The study was conducted using Rainbow trout (Oncorhynchus mykiss) to compare the effects of a standard fish vaccine to the protection provided by varying dosages of HM897. The fish were challenged with Vibrio anguillarum (V-775), a bacteria that causes fatal vibriosis, typically 3-5 days following pathogen exposure.
Rainbow Trout (Oncorhynchus mykiss) weighing approximately 5 grams were used as test organisms. The fish were obtained from Cran-Mar Trout Farm. Upon arrival at BRL's facility, the fish were quarantined for a minimum of seven days, and observed to be disease free. During this period, the fish were held at a stable temperature. There was consistent water quality in an aerated flow-through system with a flow rate of approximately 30 liters per hour. During the holding period the fish were observed daily for signs of disease, stress, injury, hemorrhaging, and external parasite. The fish were not fed 48 hours prior to testing.
The Rainbow trout used in this study weighed an average of 5 grams. The fish were divided into 21 groups with 50 fish per group. Each group of 50 fish was maintained in two 10-gallon tanks (25 fish/tank).
The level of bacterial dilution to achieve a LD75 (the level designed to kill 75% of the non-vaccinated fish) was a dilution of 10^−4. to 10^−5. The challenge bacteria were grown for 48 hours at 25° C in trypticase soy broth. The 10^−4 dilution was made from this broth in 0.9% saline. All fish excepting the control group that received no bacterial challenge were inoculated 7 days after exposure to HM897.
Rainbow trout hatchling were exposed to the concentration of HM897 as described below. Some of the fish had been vaccinated while others had received no vaccination. In each tank, fifty vaccinated or unvaccinated fish were exposed for a period of 5 minutes to HM897, and then removed and placed in an assigned tank according to the group number.
The positive control group (III) received a vaccine made from Vibrio anguillarum (V-775). This was made through a fermentation and extraction process in the BRL laboratory facility and is equivalent to the aquaculture industry standard vibrio vaccine.
All groups scheduled to be challenged with the Vibrio anguillarum bacterium were challenged at the LD75 dilution on day seven of the experiment by i.p. injection of 0.1 mL of 10^−4 bacterial dilution. The fish were observed daily for mortalities.

Substance: Thr-Ala-Glu-Glu-Lys (TAEEK) [HM897]
- Cumulative Mortalities (Day 1, Group IVa: vaccinated, HM897 2.5 μg/38 liters): 0
- Cumulative Mortalities (Day 1, Group IVb: vaccinated, HM897 10 μg/38 liters): 0
- Cumulative Mortalities (Day 1, Group IVc: vaccinated, HM897 50 μg/38 liters): 0
- Cumulative Mortalities (Day 1, Group IVd: vaccinated, HM897 100 μg/38 liters): 0
- Cumulative Mortalities (Day 1, Group Va: not vaccinated, HM897 10 μg/38 liters): 0
- Cumulative Mortalities (Day 1, Group Vb: not vaccinated, HM897 25 μg/38 liters): 0
- Cumulative Mortalities (Day 1, Group Vc: not vaccinated, HM897 75 μg/38 liters): 0
- Cumulative Mortalities (Day 1, Group Vd: not vaccinated, HM897 150 μg/38 liters): 0
- Cumulative Mortalities (Day 2.10, Group IVa: vaccinated, HM897 2.5 μg/38 liters): 0
- Cumulative Mortalities (Day 2.10, Group IVb: vaccinated, HM897 10 μg/38 liters): 0
- Cumulative Mortalities (Day 2.10, Group IVc: vaccinated, HM897 50 μg/38 liters): 0
- Cumulative Mortalities (Day 2.10, Group IVd: vaccinated, HM897 100 μg/38 liters): 0
- Cumulative Mortalities (Day 2.10, Group Va: not vaccinated, HM897 10 μg/38 liters): 0
- Cumulative Mortalities (Day 2.10, Group Vb: not vaccinated, HM897 25 μg/38 liters): 0
- Cumulative Mortalities (Day 2.10, Group Vc: not vaccinated, HM897 75 μg/38 liters): 0
- Cumulative Mortalities (Day 2.10, Group Vd: not vaccinated, HM897 150 μg/38 liters): 0
- Cumulative Mortalities (Day 11, Group IVa: vaccinated, HM897 2.5 μg/38 liters): 0
- Cumulative Mortalities (Day 11, Group IVb: vaccinated, HM897 10 μg/38 liters): 0
- Cumulative Mortalities (Day 11, Group IVc: vaccinated, HM897 50 μg/38 liters): 0
- Cumulative Mortalities (Day 11, Group IVd: vaccinated, HM897 100 μg/38 liters): 0
- Cumulative Mortalities (Day 11, Group Va: not vaccinated, HM897 10 μg/38 liters): 0
- Cumulative Mortalities (Day 11, Group Vb: not vaccinated, HM897 25 μg/38 liters): 0
- Cumulative Mortalities (Day 11, Group Vc: not vaccinated, HM897 75 μg/38 liters): 1
- Cumulative Mortalities (Day 11, Group Vd: not vaccinated, HM897 150 μg/38 liters): 0
- Cumulative Mortalities (Day 12, Group IVa: vaccinated, HM897 2.5 μg/38 liters): 0
- Cumulative Mortalities (Day 12, Group IVb: vaccinated, HM897 10 μg/38 liters): 0
- Cumulative Mortalities (Day 12, Group IVc: vaccinated, HM897 50 μg/38 liters): 0
- Cumulative Mortalities (Day 12, Group IVd: vaccinated, HM897 100 μg/38 liters): 0
- Cumulative Mortalities (Day 12, Group Va: not vaccinated, HM897 10 μg/38 liters): 0
- Cumulative Mortalities (Day 12, Group Vb: not vaccinated, HM897 25 μg/38 liters): 0
- Cumulative Mortalities (Day 12, Group Vc: not vaccinated, HM897 75 μg/38 liters): 1
- Cumulative Mortalities (Day 12, Group Vd: not vaccinated, HM897 150 μg/38 liters): 0
- Cumulative Mortalities (Day 13, Group IVa: vaccinated, HM897 2.5 μg/38 liters): 1
- Cumulative Mortalities (Day 13, Group IVb: vaccinated, HM897 10 μg/38 liters): 1
- Cumulative Mortalities (Day 13, Group IVc: vaccinated, HM897 50 μg/38 liters): 1
- Cumulative Mortalities (Day 13, Group IVd: vaccinated, HM897 100 μg/38 liters): 8
- Cumulative Mortalities (Day 13, Group Va: not vaccinated, HM897 10 μg/38 liters): 16
- Cumulative Mortalities (Day 13, Group Vb: not vaccinated, HM897 25 μg/38 liters): 18
- Cumulative Mortalities (Day 13, Group Vc: not vaccinated, HM897 75 μg/38 liters): 21
- Cumulative Mortalities (Day 13, Group Vd: not vaccinated, HM897 150 μg/38 liters): 14
- Cumulative Mortalities (Day 14, Group IVa: vaccinated, HM897 2.5 μg/38 liters): 7
- Cumulative Mortalities (Day 14, Group IVb: vaccinated, HM897 10 μg/38 liters): 5
- Cumulative Mortalities (Day 14, Group IVc: vaccinated, HM897 50 μg/38 liters): 5
- Cumulative Mortalities (Day 14, Group IVd: vaccinated, HM897 100 μg/38 liters): 15
- Cumulative Mortalities (Day 14, Group Va: not vaccinated, HM897 10 μg/38 liters): 24
- Cumulative Mortalities (Day 14, Group Vb: not vaccinated, HM897 25 μg/38 liters): 25
- Cumulative Mortalities (Day 14, Group Vc: not vaccinated, HM897 75 μg/38 liters): 29
- Cumulative Mortalities (Day 15, Group IVa: vaccinated, HM897 2.5 μg/38 liters): 10
- Cumulative Mortalities (Day 15, Group IVb: vaccinated, HM897 10 μg/38 liters): 6
- Cumulative Mortalities (Day 15, Group IVc: vaccinated, HM897 50 μg/38 liters): 10
- Cumulative Mortalities (Day 15, Group IVd: vaccinated, HM897 100 μg/38 liters): 16
- Cumulative Mortalities (Day 15, Group Va: not vaccinated, HM897 10 μg/38 liters): 28
- Cumulative Mortalities (Day 15, Group Vb: not vaccinated, HM897 25 μg/38 liters): 32
- Cumulative Mortalities (Day 15, Group Vc: not vaccinated, HM897 75 μg/38 liters): 32
- Cumulative Mortalities (Day 16, Group IVa: vaccinated, HM897 2.5 μg/38 liters): 13
- Cumulative Mortalities (Day 16, Group IVb: vaccinated, HM897 10 μg/38 liters): 6
- Cumulative Mortalities (Day 16, Group IVc: vaccinated, HM897 50 μg/38 liters): 10
- Cumulative Mortalities (Day 16, Group IVd: vaccinated, HM897 100 μg/38 liters): 17
- Cumulative Mortalities (Day 16, Group Va: not vaccinated, HM897 10 μg/38 liters): 33
- Cumulative Mortalities (Day 16, Group Vb: not vaccinated, HM897 25 μg/38 liters): 33
- Cumulative Mortalities (Day 16, Group Vc: not vaccinated, HM897 75 μg/38 liters): 33
- Cumulative Mortalities (Day 17, Group IVa: vaccinated, HM897 2.5 μg/38 liters): 13
- Cumulative Mortalities (Day 17, Group IVb: vaccinated, HM897 10 μg/38 liters): 7
- Cumulative Mortalities (Day 17, Group IVc: vaccinated, HM897 50 μg/38 liters): 10
